In US20150231093A1, “METHODS AND COMPOSITIONS FOR COUNTERMEASURES AGAINST RADIATION” (THE UNIVERSITY OF CHICAGO, priority 2014, published 2015):

Legend:
[1] = Tolerability of the i.p. doses used in mice
Procedure: For in vivo studies, mice were injected i.p. with a final volume of 0.2 ml for all single and drug combinations used. […] Captopril was injected at a final concentration of 200 mg/kg body weight, MESNA was injected at a final concentration of 300 mg/kg body weight, and NAC was injected at a concentration of 400 mg/kg body weight.

[2] = system: mouse embryo fibroblasts (MEF); assay: In vitro cell survival (colony) assay after 4 Gy, MEF; type: cell-based; conditions: 4 mM, 30 min prior to 4 Gy
Source text: (§1) In Vitro Cell Survival Assay. […] Unirradiated cells served as controls. Immediately following irradiation, cells were counted, diluted, and known numbers seeded into 100-mm tissue culture dishes to allow the development of 50 to 150 colonies per dish. Colonies were stained with 20% crystal violet and scored 12 days after plating.

[3] = system: SA-NH murine sarcoma cells; assay: In vitro cell survival (colony) assay after 4 Gy, SA-NH cells; type: cell-based; conditions: 4 mM, 30 min prior to 4 Gy
Source text: as §1

[4] = system: human microvascular endothelial cells (HMEC); assay: In vitro cell survival (colony) assay after 4 Gy, HMEC; type: cell-based; conditions: 4 mM, 30 min prior to 4 Gy
Source text: as §1

mouse splenocytes = conditions: i.p. 24 h following 7 Gy; amifostine 400 mg/kg, metformin 250 mg/kg
[5] = 250 mg/kg i.p. 24 h following 7 Gy, counted 13 days after irradiation

SMILES: O=S(=O)([O-])CCS.[Na+] [MESNA, sodium 2-sulfanylethanesulfonate]
- toxicity of dose used ([1]; 300 mg/kg body weight): non-toxic

SMILES: CC(=O)N[C@@H](CS)C(=O)O [NAC, N-acetyl-cysteine]
- toxicity of dose used ([1]; 400 mg/kg body weight): non-toxic

SMILES: NCCCNCCS [WR1065, 2-[(aminopropyl)amino] ethanethiol]
- protection ratio [2]: 1.9
- protection ratio [3]: 1.6
- protection ratio [4]: 1.8

SMILES: CN(C)C(=N)NC(=N)N.Cl [Metformin, 1,1-Dimethylbiguanide hydrochloride]
- protection of irradiated animals (in words) (mouse splenocytes): significantly protected
- average number of spleen nodules [5]: 18

SMILES: C[C@H](CS)C(=O)N1CCC[C@H]1C(=O)O [Captopril, captopril]
- toxicity of dose used ([1]; 200 mg/kg body weight): non-toxic
